From ChEMBL document CHEMBL6096661, “Synthesis, biological evaluation and mechanism study of a novel indole-pyridine chalcone derivative as antiproliferative agent against tumor cells through dual targeting tubulin and HK2” (Eur J Med Chem, 2025)
Calls of active or inactive are those of the source. The calls are words filed in the database; no cut-off is given here.

What was measured:
[1] = biological target: T1, Hexokinase-2 (Homo sapiens) (UniProt P52789); experiment: Binding affinity to human HK2 transfected in Escherichia coli BL21 (DE) by pull down assay
T1 sequence (whole entry): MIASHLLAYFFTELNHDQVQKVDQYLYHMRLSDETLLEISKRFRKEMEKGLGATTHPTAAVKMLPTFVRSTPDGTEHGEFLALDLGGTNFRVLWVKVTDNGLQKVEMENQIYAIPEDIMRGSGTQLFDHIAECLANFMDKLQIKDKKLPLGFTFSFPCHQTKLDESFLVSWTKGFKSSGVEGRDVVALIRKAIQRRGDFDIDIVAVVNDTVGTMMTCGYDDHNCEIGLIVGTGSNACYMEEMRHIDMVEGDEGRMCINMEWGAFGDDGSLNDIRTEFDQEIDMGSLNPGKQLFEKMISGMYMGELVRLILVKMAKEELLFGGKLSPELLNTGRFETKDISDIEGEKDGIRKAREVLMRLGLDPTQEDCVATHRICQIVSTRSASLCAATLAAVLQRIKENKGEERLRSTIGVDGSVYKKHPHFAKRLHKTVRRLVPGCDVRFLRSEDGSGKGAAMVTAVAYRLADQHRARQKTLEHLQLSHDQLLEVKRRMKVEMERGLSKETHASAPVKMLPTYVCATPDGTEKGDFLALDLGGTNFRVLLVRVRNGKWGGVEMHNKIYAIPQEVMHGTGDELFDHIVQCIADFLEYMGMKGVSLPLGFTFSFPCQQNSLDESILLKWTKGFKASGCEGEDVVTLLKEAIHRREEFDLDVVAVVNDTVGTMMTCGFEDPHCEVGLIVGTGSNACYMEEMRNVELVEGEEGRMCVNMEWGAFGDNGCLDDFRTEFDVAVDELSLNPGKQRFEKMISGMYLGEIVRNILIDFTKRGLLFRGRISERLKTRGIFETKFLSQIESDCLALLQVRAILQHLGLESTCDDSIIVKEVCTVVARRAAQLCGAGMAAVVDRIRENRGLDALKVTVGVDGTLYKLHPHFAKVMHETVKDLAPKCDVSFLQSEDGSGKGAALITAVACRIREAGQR

[2] = biological target: Tubulin beta (Homo sapiens) (UniProt P68371+Q9H4B7+Q13509+P04350+Q3ZCM7+P07437+Q13885+Q9BVA1+Q9BUF5+A6NNZ2); experiment: Binding affinity to beta-tubulin (unknown origin) by pull down assay; type: protein assay
MDA-MB-231 = experiment: Antiproliferative activity against human MDA-MB-231 cells assessed as reduction in cell proliferation incubated for 48 hrs by CCK-8 assay; type: functional, cell-based; settings: MDA-MB-231, 48 h
Tubulin (Homo sapiens) [3] = biological target: T2, Tubulin (Homo sapiens) (UniProt P68371+Q9H4B7+P0DPH7+P68366+Q13509+Q71U36+P04350+Q3ZCM7+P07437+P68363+Q9BQE3+Q6PEY2+Q13885+Q9BVA1+Q9BUF5); experiment: Disruption of microtubule network in human MDA-MB-231 cells assessed as reduced microtubule network at 1 uM incubated for 24 hrs by DAPI staining based fluorescence microscopic analysis; type: cell-based
Tubulin (Homo sapiens) [4] = biological target: T2, Tubulin (Homo sapiens); experiment: Disruption of microtubule network in human MDA-MB-231 cells assessed as disorganized microtubule network at 1 uM incubated for 24 hrs by DAPI staining based fluorescence microscopic analysis; type: cell-based
Tubulin (Homo sapiens) [5] = biological target: T2, Tubulin (Homo sapiens); experiment: Disruption of microtubule network in human MDA-MB-231 cells assessed as atrophy fiber structure at 1 uM incubated for 24 hrs by DAPI staining based fluorescence microscopic analysis; type: cell-based
Tubulin (Homo sapiens) [6] = biological target: T2, Tubulin (Homo sapiens); experiment: Disruption of microtubule network in human MDA-MB-231 cells assessed as punctate fiber structure at 1 uM incubated for 24 hrs by DAPI staining based fluorescence microscopic analysis; type: cell-based
Tubulin (Homo sapiens) [7] = biological target: T2, Tubulin (Homo sapiens); experiment: Disruption of microtubule network in human MDA-MB-231 cells assessed as point-like fiber structure at 1 uM incubated for 24 hrs by DAPI staining based fluorescence microscopic analysis; type: cell-based
[8] = biological target: T1, Hexokinase-2 (Homo sapiens); experiment: Inhibition of human HK2 transfected in Escherichia coli BL21 (DE) incubated for 10 mins

Row | Activity [1] | Activity [2] | IC50 (MDA-MB-231) [nM] | Activity (Tubulin (Homo sapiens) [3]) | Activity (Tubulin (Homo sapiens) [4]) | Activity (Tubulin (Homo sapiens) [5]) | Activity (Tubulin (Homo sapiens) [6]) | Activity (Tubulin (Homo sapiens) [7]) | inhibition [8] | Compound
1 | Active | Active | – | – | – | – | – | – | – | O=C1N[C@H]2[C@H](CS[C@H]2CCCCC(=O)N2CCN(c3ccc4c(c3)c(/C=C/C(=O)c3cccnc3)cn4S(=O)(=O)c3ccc([N+](=O)[O-])cc3)CC2)N1
2 | – | – | 1940 | Active | Active | Active | Active | Active | inactive | COc1ccc(CCc2cc(OC)c(OC)c(OC)c2)cc1O
